Assay results reported in US8178688B2, “Benzamidine derivatives, process for the preparation thereof and pharmaceutical composition comprising the same” (Dong Wha Pharmaceutical Co., Ltd., priority 2004, dated 2012).
Read-outs that look alike come from different tables or passages of the source.

How the values were obtained:
[1] = tested on: osteoclast differentiation; assay: Inhibitory effects on osteoclast differentiation (co-culture of bone marrow cells with osteoblast, TRAP staining); assay type: cell-based, mice; details: for inhibition at 1 µM: Mus musculus, Osteoclast, 168 h, read-out: % inhibitory activity on osteoclastogenesis
How it was run: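 Bone marrow cells from 6–8-week male ddY mice co-cultured with neonatal ICR mouse calvarial osteoblasts in α-MEM/FBS with dexamethasone (10^−7M) and vitamin D3 (10^−8M) for 7 days, compound and medium renewed every 2–3 days. TRAP-positive cells with ≥3 nuclei counted; inhibition given as percent of control.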

osteoblast = assay: Effect on bone formation (osteoblast nodule mineralization, Alizarin red S); assay type: cell-based, ICR mice; details: calvarial osteoblast in osteogenic differentiation medium
Procedure: The osteoblast, treated in this experiment, was prepared from the osteoblast as prepared in the above.
The osteoblast, isolated from sequential enzymatic treatment of calvariae from neonated ICR mice, was cultured in α-MEM medium containing 10% FBS for 4˜5 days. The osteoblast was also cultured for 24 hr after seeding the cells on a 12 well plate (10^5 cell/well), and medium was exchanged with the osteogenic differentiation medium containing 10 mM β-glycerophosphate and 50 μg/ml ascorbic acid.
The test substances at the concentration of 0.1 uM and 0.1 nM were added to the above medium for evaluating the effect promoting bone formation. The differentiation medium containing the test substances was exchanged every 3 or 4 days for 14 to 21 days until confirming the nodule mineralization.
The cell was rinsed twice with distilled water, and fixed by the 10% formalin solutions for 30 minutes. Alizarin red S and Von-kossa Solution were treated on the plate for measuring deposited calcium and phosphate in cell matrix, and the activity of the test substances on the bone formation was analyzed by determining stained area.
Additionally, for the purpose of estimating quantitative Arizarin red S in cell matrix, stained Arizarin red S was extracted by treating 10 mM sodium phosphate solution (pH 7.0), containing 10% cetylpyridinium chloride, for 15˜30 minutes in the shaking incubator, and then the amount of the deposited calcium was estimated by calculating the absorbance of the extracted Arizarin red S at 564 nm. […]

cells = assay: Cytotoxicity test (MTT); assay type: cell-based; details: 10^−6M, 72 hrs, compared with the control group
How it was run: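 Benzamidine derivatives were checked for cytotoxicity with an MTT assay. Test substances were diluted in a suitable solvent to 10^−2M. Cells were seeded at 1×10^4 cell/100 μL per well in 96-well microplates and grown for 72 hrs. During the final 4 hrs, 25 μL of MTT (2 mg/mL in PBS) was added. Plates were then centrifuged, the medium removed, formazan dissolved in 100 μL DMSO, and absorbance read at 540 nm.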

ovariectomized ddY mouse = assay: Therapeutic effect in the ovariectomized osteoporetic mouse model (trabecular bone volume of the femur); assay type: in vivo, ddY mice; details: 50 mg/kg/day oral gavage for 4 weeks from 4 weeks after ovariectomy, salts (methansulfonic acid or HCl); for change in vivo at 50 mg/kg: Mus musculus, 672 h, read-out: Changes on TBV (% changes vs vehicle control)
Procedure: The therapeutic effects of each benzamidine derivates were evaluated on the ovariectomized ddY mouse. Benzamidine derivates were dosed from 4 weeks after operation for 4 weeks and the changes on the trabecular bone volume (TBV) of the femur were observed via histomorphometry.
Female ddY mice (6-wk old upon receipt, SLC, Japan) were used after acclimatization for 7 days. Animals were allocated 5 per polycarbonate cage in a temperature (20-25° C.) and humidity (30-35%) controlled room. Light:dark cycle was 12 hr:12 hr and feed (Samyang, Korea) and water were supplied free to access.
Salts of benzamidine derivates (Methansulfonic acid or HCl) were used for the test substances of this invention. Test substances are dissolved and/or suspended in injectable distilled water and administered at a dosage volume of 10 ml/kg by oral gavage. All test substances are dosed from 4 weeks after operation for 4 weeks at 50 mg/kg/day.
To induce estrogen-deficient osteoporosis, bilateral ovaries are removed and then closed by routine methods. Operation was conduct under Ketamine hydrochloride and xylazine hydrochloride anesthesia.
The left femur of each mouse were separated at sacrifice, and fixed in 10% neutral buffered formalin (NBF), then decalcified in decalcifying solution (24.4% formic acid, and 0.5N sodium hydroxide) for 5 days (mixed decalcifying solution was exchanges once a day for 5 days). After the dexalcification, the femur was embedded in paraffin, sectioned (3˜4 μm) and stained with hematoxylin-eosin stain.
TBV was calculated using automated image analysis (analySIS Image Processing; SIS, Germany) under magnification of ×200 in the uniform area of trochlea epiphyseal regions (growth plate regions were excluded) of prepared histological specimens. TBV was calculated as percentage (%) levels.
The changes of TBV compared to that of vehicle control are calculated as following Equation 1 to help the understanding of the efficacy of test substances. Percentage changes=[((TBV of a−TBV of b)/TBV of b)×100] Equation 1

[2] = 1 μm, co-culture of bone marrow cells and osteoblast, 7 days, TRAP-positive osteoclasts versus controls
[3] = 1 m, co-culture of bone marrow cells and osteoblast, 7 days, TRAP-positive osteoclasts versus controls

SMILES	inhibition at 1 µM [1, 2]	melting point	also measured
Cc1nc(-c2ccc(OCCCCCOc3ccc(C(=N)NO)cc3)cc2)cs1 [Example 3, N-hydroxy-4-(5-[4-(2-methyl-1,3-thiazol-4-yl)phenoxy]pentoxy)-benzamidine]	41.4%	139 to 140 °C	
CC(C)c1nc(-c2ccc(OCCCCCOc3ccc(C(=N)NO)cc3)cc2)cs1 [Example 5, N-hydroxy-4-(5-[4-(2-isopropyl-1,3-thiazol-4-yl)phenoxy]pentoxy)-benzamidine]	87.5%	95 to 129 °C	
CCCCCc1nc(-c2ccc(OCCCCCOc3ccc(C(=N)NO)cc3)cc2)cs1 [Example 9, N-hydroxy-4-(5-[4-(2-pentyl-1,3-thiazol-4-yl)phenoxy]pentoxy)-benzamidine]			inhibition at 1 µM [1]: 100%; bone forming activity (%) (osteoblast; 0.1 nM): 6.14%; bone forming activity (%) (osteoblast; 0.1 μM): 13.68%
Cc1nc(-c2ccc(OCCCCCOc3ccc(C(=N)NO)cc3)cc2)c(C)s1 [Example 10, N-hydroxy-4-(5-[4-(2,5-dimethyl-1,3-thiazol-4-yl)phenoxy]pentoxy)-benzamidine]	1.8%	128 to 133 °C	
CCc1nc(-c2ccc(OCCCCCOc3ccc(C(=N)NO)cc3)cc2)c(C)s1 [Example 11, N-hydroxy-4-(5-[4-(2-ethyl-5-methyl-1,3-thiazol-4-yl)phenoxy]pentoxy)-benzamidine]	53.2%	127 to 131 °C	Survival rates of the cells (cells; MC3T3-E1 cells): 87.2%; Survival rates of the cells (cells; ST2 cells): 33.1%
Cc1sc(-c2ccccc2)nc1-c1ccc(OCCCCCOc2ccc(C(=N)NO)cc2)cc1 [Example 12, N-hydroxy-4-(5-[4-(5-methyl-2-phenyl-1,3-thiazol-4-yl)phenoxy]pentoxy)-benzamidine]		124 to 130 °C	
Cc1sc(C2CCCCC2)nc1-c1ccc(OCCCCCOc2ccc(C(=N)NO)cc2)cc1 [Example 14, N-hydroxy-4-(5-[4-(2-cyclohexyl-5-methyl-1,3-thiazol-4-yl)phenoxy]pentoxy)-benzamidine]	89.2%		bone forming activity (%) (osteoblast; 0.1 nM): 10.56%; bone forming activity (%) (osteoblast; 0.1 μM): 12.06%
CCCCCc1nc(-c2ccc(OCCCCCOc3ccc(C(=N)NO)cc3)cc2)c(C)s1 [Example 15, N-hydroxy-4-(5-[4-(5-methyl-2-pentyl-1,3-thiazol-4-yl)phenoxy]pentoxy)-benzamidine]		81 to 89 °C	inhibition at 1 µM [1]: 68.3%; Survival rates of the cells (cells; MC3T3-E1 cells): 81.8%; Survival rates of the cells (cells; ST2 cells): 42.3%
CCc1nc(-c2ccc(OCCCCCOc3ccc(C(=N)NO)cc3)cc2)c(CC)s1 [Example 18, N-hydroxy-4-(5-[4-(2,5-diethyl-1,3-thiazol-4-yl)phenoxy]pentoxy)-benzamidine]	24.8%	121 to 127 °C	
CCc1sc(-c2ccccc2)nc1-c1ccc(OCCCCCOc2ccc(C(=N)NO)cc2)cc1 [Example 20, N-hydroxy-4-(5-[4-(5-ethyl-2-phenyl-1,3-thiazol-4-yl)phenoxy]pentoxy)-benzamidine]	35.6%	83 to 86 °C	
CCc1sc(-c2cccnc2)nc1-c1ccc(OCCCCCOc2ccc(C(=N)NO)cc2)cc1 [Example 21, N-hydroxy-4-(5-[4-(5-ethyl-2-pyridin-3-yl-1,3-thiazol-4-yl)phenoxy]pentoxy)-benzamidine]		146 to 153 °C	change in vivo at 50 mg/kg (ovariectomized ddY mouse): 75.5%
CCc1sc(C2CCCCC2)nc1-c1ccc(OCCCCCOc2ccc(C(=N)NO)cc2)cc1 [Example 22, N-hydroxy-4-(5-[4-(2-cyclohexyl-5-ethyl-1,3-thiazol-4-yl)phenoxy]pentoxy)-benzamidine]	92.6%		bone forming activity (%) (osteoblast; 0.1 nM): 10.33%; bone forming activity (%) (osteoblast; 0.1 μM): 8.56%
CCCCCc1nc(-c2ccc(OCCCCCOc3ccc(C(=N)NO)cc3)cc2)c(CC)s1 [Example 23, N-hydroxy-4-(5-[4-(5-ethyl-2-pentyl-1,3-thiazol-4-yl)phenoxy]pentoxy)-benzamidine]		79 to 88 °C	inhibition at 1 µM [1]: 47.7%; change in vivo at 50 mg/kg (ovariectomized ddY mouse): 28%
CCCCc1sc(C)nc1-c1ccc(OCCCCCOc2ccc(C(=N)NO)cc2)cc1 [Example 30, N-hydroxy-4-(5-[4-(5-butyl-2-methyl-1,3-thiazol-4-yl)phenoxy]pentoxy)-benzamidine]	47.7%	138 to 140 °C	
CCCCc1sc(CC)nc1-c1ccc(OCCCCCOc2ccc(C(=N)NO)cc2)cc1 [Example 31, N-hydroxy-4-(5-[4-(5-butyl-2-ethyl-1,3-thiazol-4-yl)phenoxy]pentoxy)-benzamidine]	35.6%	80 to 84 °C	
CCCCc1sc(-c2cccnc2)nc1-c1ccc(OCCCCCOc2ccc(C(=N)NO)cc2)cc1 [Example 34, N-hydroxy-4-(5-[4-(5-butyl-2-pyridin-3-yl-1,3-thiazol-4-yl)phenoxy]pentoxy)-benzamidine]	28.7%	107 to 118 °C	
CC(C)c1nc(-c2ccc(OCCCCCOc3ccc(C(=N)NO)cc3)cc2)c(Cc2ccccc2)s1 [Example 39, N-hydroxy-4-(5-[4-(5-benzyl-2-isopropyl-1,3-thiazol-4-yl)phenoxy]pentoxy)-benzamidine]	37.5%	108 to 120 °C	
N=C(NO)c1ccc(OCCCCCOc2ccc(-c3nc(-c4cccnc4)sc3Cc3ccccc3)cc2)cc1 [Example 41, N-hydroxy-4-(5-[4-(5-benzyl-2-pyridin-3-yl-1,3-thiazol-4-yl)phenoxy]pentoxy)-benzamidine]	64%	134 to 143 °C	Survival rates of the cells (cells; MC3T3-E1 cells): 84.6%; Survival rates of the cells (cells; ST2 cells): 48.7%
CCNc1nc(-c2ccc(OCCCCCOc3ccc(C(=N)NO)cc3)cc2)c(CC2CCCC2)s1 [Example 110, N-hydroxy-4-(5-[4-(5-cyclopentylmethyl-2-ethylamino-1,3-thiazol-4-yl)phenoxy]pentoxy)-benzamidine]			inhibition at 1 µM [1, 3]: 100%; bone forming activity (%) (osteoblast; 0.1 nM): 9.76%; bone forming activity (%) (osteoblast; 0.1 μM): 9.37%
CCN(CCN1CCOCC1)c1nc(-c2ccc(OCCCCCOc3ccc(C(=N)NO)cc3)cc2)c(C)s1 [Example 124, N-hydroxy-4-(5-[4-(2-(ethyl-1-(2-morpholinoethyl)-amino)-5-methyl-1,3-thiazol-4-yl)phenoxy]pentoxy)-benzamidine]			% inhibitory activity on osteoclastogenesis ([1]; co-culture of bone marrow cells and osteoblast, 7 days, TRAP-positive osteoclasts versus controls): 87.9%; bone forming activity (%) (osteoblast; 0.1 nM): 6.44%; bone forming activity (%) (osteoblast; 0.1 μM): 12.9%; Changes on TBV (% changes vs vehicle control) (ovariectomized ddY mouse): 72.82%
CCc1sc(N(C)CCO)nc1-c1ccc(OCCCCCOc2ccc(C(=N)NO)cc2)cc1 [Example 129, N-hydroxy-4-(5-[4-(5-ethyl-2-((2-hydroxyethyl)-methyl-amino)-1,3-thiazol-4-yl)phenoxy]pentoxy)-benzamidine]			inhibition at 1 µM [1, 3]: 64.7%; bone forming activity (%) (osteoblast; 0.1 nM): 11.18%; bone forming activity (%) (osteoblast; 0.1 μM): 11.54%
